Test results reported in patent publication US20220177538A1, “CO-AGONISTS AT GLP-1 AND GIP RECEPTORS SUITABLE FOR ORAL DELIVERY” (Novo Nordisk A/S, priority 2020, published 2022).
pEC50: −log10 of the molar value. Where two headings read alike, the source gives them in different places. Starred links: 1 amine or outer side, 2 acyl side, 3 side chain; linkers in the order of their positions; H or OH if unused. Non-standard residues stand in square brackets, D forms with d. Residues, ends and D or L forms follow the SMILES beside them. Groups on a side chain read outwards from the residue. *: point of attachment. C18 diacid = O=C(O)CCCCCCCCCCCCCCCCC(=O)*; γGlu = O=C(O)[C@H](CCC(=O)[*:2])N[*:1]; εLys = N[C@@H](CCCCN[*:1])C(=O)[*:2]; AEEA = NCCOCCOCC(=O)O; Aib = CC(C)(N)C(=O)O

What was measured:
[1] = molecular target: T1, human GIP receptor (Homo sapiens, UniProt P48546); assay: In vitro functional potency, CRE luciferase reporter, whole BHK cells (hGIPR); format: cell-based; conditions: BHK CRE luc2P hGIPR cells
T1 construct: expressed in transfected cells; host or cells: BHK (parent line BHKTS13), clone BHK CRE luc2P hGIPR
T1 sequence (P48546 22-466): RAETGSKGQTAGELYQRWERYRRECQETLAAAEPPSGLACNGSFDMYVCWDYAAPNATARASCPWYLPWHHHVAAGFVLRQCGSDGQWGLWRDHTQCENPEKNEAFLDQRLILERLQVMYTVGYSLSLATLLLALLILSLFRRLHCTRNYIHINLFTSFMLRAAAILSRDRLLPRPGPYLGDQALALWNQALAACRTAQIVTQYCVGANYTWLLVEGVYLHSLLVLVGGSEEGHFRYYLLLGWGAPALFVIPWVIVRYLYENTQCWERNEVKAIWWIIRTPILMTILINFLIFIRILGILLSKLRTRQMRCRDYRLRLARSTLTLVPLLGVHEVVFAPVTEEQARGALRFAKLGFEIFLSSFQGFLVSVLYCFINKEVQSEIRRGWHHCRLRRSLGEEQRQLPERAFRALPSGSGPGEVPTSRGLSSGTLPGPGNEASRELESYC
Outline: (§1)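 Potencies are replicate means (n≥2) from non-linear log(agonist) vs response fits of CRE-driven luminescence. Cells were overnight-plated BHK CRE luc2P lines transfected with human GIPR or GLP-1R, 5000/well.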

[2] = molecular target: human GLP-1 receptor (Homo sapiens, UniProt P43220); assay: In vitro functional potency, CRE luciferase reporter, whole BHK cells (hGLP-1R); format: cell-based; parameters: expressed in transfected cells; host or cells: BHK (parent line BHKTS13), clone BHK CRE luc2P hGLP-1R; conditions: BHK CRE luc2P hGLP-1R cells
Chain of human GLP-1 receptor (P43220 24-463): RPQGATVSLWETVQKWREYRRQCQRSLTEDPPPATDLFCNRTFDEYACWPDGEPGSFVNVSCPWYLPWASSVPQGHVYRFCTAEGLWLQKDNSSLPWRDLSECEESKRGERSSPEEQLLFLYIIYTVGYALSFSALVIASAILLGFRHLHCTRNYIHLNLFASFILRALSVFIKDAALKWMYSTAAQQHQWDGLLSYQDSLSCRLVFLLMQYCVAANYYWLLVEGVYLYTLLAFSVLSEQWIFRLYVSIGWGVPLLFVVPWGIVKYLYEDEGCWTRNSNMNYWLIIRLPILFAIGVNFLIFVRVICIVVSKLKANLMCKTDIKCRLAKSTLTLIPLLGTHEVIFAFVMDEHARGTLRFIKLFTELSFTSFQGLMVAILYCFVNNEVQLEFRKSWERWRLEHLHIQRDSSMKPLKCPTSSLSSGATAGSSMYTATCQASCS
Outline: as §1

[3] = 0% HSA, read-out: hGIPR, CRE Luc 0% HSA EC50
[4] = hGIPR, CRE Luc 1% HSA EC50, 1% HSA
[5] = 0% HSA, read-out: hGLP-1R, CRE Luc 0% HSA EC50
[6] = hGLP-1R, CRE Luc 1% HSA EC50, 1% HSA

Structure (SMILES) | pEC50 [1, 3] | pEC50 [1, 4] | pEC50 [2, 5] | pEC50 [2, 6]
CC[C@H](C)[C@H](NC(=O)[C@H](Cc1ccccc1)NC(=O)[C@H](CCC(=O)O)NC(=O)[C@H](CCCNC(=N)N)NC(=O)[C@H](C)NC(=O)[C@H](C)NC(=O)[C@H](CCC(N)=O)NC(=O)[C@H](CCCCNC(=O)COCCOCCNC(=O)COCCOCCNC(=O)CC[C@H](NC(=O)CCCCCCCCCCCCCCCCC(=O)O)C(=O)O)NC(=O)[C@H](CCC(=O)O)NC(=O)[C@H](CC(C)C)NC(=O)[C@H](CC(C)C)NC(=O)[C@@H](NC(=O)[C@H](CO)NC(=O)[C@H](Cc1ccc(O)cc1)NC(=O)[C@H](CC(=O)O)NC(=O)[C@H](CO)NC(=O)[C@@H](NC(=O)[C@H](Cc1ccccc1)NC(=O)[C@@H](NC(=O)CNC(=O)[C@H](CCC(=O)O)NC(=O)C(C)(C)NC(=O)[C@@H](N)Cc1ccc(O)cc1)[C@@H](C)O)[C@@H](C)O)[C@@H](C)CC)C(=O)N[C@@H](CC(N)=O)C(=O)N[C@@H](Cc1c[nH]c2ccccc12)C(=O)N[C@@H](CC(C)C)C(=O)N[C@@H](CC(C)C)C(=O)N[C@@H](C)C(=O)NCC(=O)NCC(=O)N1CCC[C@H]1C(=O)N[C@@H](CO)C(=O)N[C@@H](CO)C(=O)NCC(=O)N[C@@H](C)C(=O)N1CCC[C@H]1C(=O)N1CCC[C@H]1C(=O)N1CCC[C@H]1C(=O)N[C@@H](CO)C(=O)O [Compound 35] (H-Y[Aib]EGTFTSDYSILLEK([AEEA-AEEA-γGlu-C18 diacid])QAAREFINWLLAGGPSSGAPPPS-OH) | 11.28 | 9.52 | 11.52 | 9.38
CC[C@H](C)[C@H](NC(=O)[C@H](Cc1ccccc1)NC(=O)[C@H](CCC(=O)O)NC(=O)[C@H](CCCNC(=N)N)NC(=O)[C@H](C)NC(=O)[C@H](C)NC(=O)[C@H](CCC(N)=O)NC(=O)[C@H](CCCCNC(=O)COCCOCCNC(=O)COCCOCCNC(=O)CC[C@H](NC(=O)CCCCCCCCCCCCCCCCC(=O)O)C(=O)O)NC(=O)[C@H](CCC(=O)O)NC(=O)[C@H](CC(C)C)NC(=O)[C@@H](NC(=O)[C@@H](NC(=O)[C@H](CO)NC(=O)[C@H](Cc1ccc(O)cc1)NC(=O)[C@H](CC(=O)O)NC(=O)[C@H](CO)NC(=O)[C@@H](NC(=O)[C@H](Cc1ccccc1)NC(=O)[C@@H](NC(=O)CNC(=O)[C@H](CCC(=O)O)NC(=O)C(C)(C)NC(=O)[C@@H](N)Cc1ccc(O)cc1)[C@@H](C)O)[C@@H](C)O)[C@@H](C)CC)[C@@H](C)CC)C(=O)N[C@@H](CC(N)=O)C(=O)N[C@@H](Cc1c[nH]c2ccccc12)C(=O)N[C@@H](CC(C)C)C(=O)N[C@@H](CC(C)C)C(=O)N[C@@H](C)C(=O)NCC(=O)NCC(=O)N1CCC[C@H]1C(=O)N[C@@H](CO)C(=O)N[C@@H](CO)C(=O)NCC(=O)N[C@@H](C)C(=O)N1CCC[C@H]1C(=O)N1CCC[C@H]1C(=O)N1CCC[C@H]1C(=O)N[C@@H](CO)C(=O)O [Compound 36] (H-Y[Aib]EGTFTSDYSIILEK([AEEA-AEEA-γGlu-C18 diacid])QAAREFINWLLAGGPSSGAPPPS-OH) | 11.26 | 9.45 | 11.33 | 9.38
CC[C@H](C)[C@H](NC(=O)[C@H](Cc1ccccc1)NC(=O)[C@H](CCCCNC(=O)[C@@H](N)CCCCNC(=O)[C@@H](N)CCCCNC(=O)CC[C@H](NC(=O)CCCCCCCCCCCCCCCCC(=O)O)C(=O)O)NC(=O)[C@H](CCCNC(=N)N)NC(=O)[C@H](C)NC(=O)[C@H](C)NC(=O)[C@H](CCC(N)=O)NC(=O)[C@H](CCC(=O)O)NC(=O)[C@H](CCC(=O)O)NC(=O)[C@H](CC(C)C)NC(=O)[C@H](Cc1ccc(O)cc1)NC(=O)[C@@H](NC(=O)[C@H](CO)NC(=O)[C@H](Cc1ccc(O)cc1)NC(=O)[C@H](CC(=O)O)NC(=O)[C@H](CO)NC(=O)[C@@H](NC(=O)[C@H](Cc1ccccc1)NC(=O)[C@@H](NC(=O)CNC(=O)[C@H](CCC(=O)O)NC(=O)C(C)(C)NC(=O)[C@@H](N)Cc1ccc(O)cc1)[C@@H](C)O)[C@@H](C)O)[C@@H](C)CC)C(=O)N[C@@H](CC(N)=O)C(=O)N[C@@H](Cc1c[nH]c2ccccc12)C(=O)N[C@@H](CC(C)C)C(=O)N[C@@H](CC(C)C)C(=O)N[C@@H](C)C(=O)NCC(=O)NCC(=O)N1CCC[C@H]1C(=O)N[C@@H](CO)C(=O)N[C@@H](CO)C(=O)NCC(=O)N[C@@H](C)C(=O)N1CCC[C@H]1C(=O)N1CCC[C@H]1C(=O)N1CCC[C@H]1C(=O)N[C@@H](CO)C(=O)O [Compound 37] (H-Y[Aib]EGTFTSDYSIYLEEQAARK([εLys-εLys-γGlu-C18 diacid])FINWLLAGGPSSGAPPPS-OH) | 10.95 | 9.53 | 11.57 | 10.02
CC[C@H](C)[C@H](NC(=O)[C@H](Cc1ccccc1)NC(=O)[C@H](CCC(=O)O)NC(=O)[C@H](CCCNC(=N)N)NC(=O)[C@H](C)NC(=O)[C@H](C)NC(=O)[C@H](CCCCNC(=O)[C@@H](N)CCCCNC(=O)[C@@H](N)CCCCNC(=O)CC[C@H](NC(=O)CCCCCCCCCCCCCCCCC(=O)O)C(=O)O)NC(=O)[C@H](CCC(=O)O)NC(=O)[C@H](CCC(=O)O)NC(=O)[C@H](CC(C)C)NC(=O)[C@H](Cc1ccc(O)cc1)NC(=O)[C@@H](NC(=O)[C@H](CO)NC(=O)[C@H](Cc1ccc(O)cc1)NC(=O)[C@H](CC(=O)O)NC(=O)[C@H](CO)NC(=O)[C@@H](NC(=O)[C@H](Cc1ccccc1)NC(=O)[C@@H](NC(=O)CNC(=O)[C@H](CCC(=O)O)NC(=O)C(C)(C)NC(=O)[C@@H](N)Cc1ccc(O)cc1)[C@@H](C)O)[C@@H](C)O)[C@@H](C)CC)C(=O)N[C@@H](CC(N)=O)C(=O)N[C@@H](Cc1c[nH]c2ccccc12)C(=O)N[C@@H](CC(C)C)C(=O)N[C@@H](CC(C)C)C(=O)N[C@@H](C)C(=O)NCC(=O)NCC(=O)N1CCC[C@H]1C(=O)N[C@@H](CO)C(=O)N[C@@H](CO)C(=O)NCC(=O)N[C@@H](C)C(=O)N1CCC[C@H]1C(=O)N1CCC[C@H]1C(=O)N1CCC[C@H]1C(=O)N[C@@H](CO)C(=O)O [Compound 38] (H-Y[Aib]EGTFTSDYSIYLEEK([εLys-εLys-γGlu-C18 diacid])AAREFINWLLAGGPSSGAPPPS-OH) | 10.91 | 9.09 | 11.51 | 9.59
CC[C@H](C)[C@H](NC(=O)[C@H](Cc1ccccc1)NC(=O)[C@H](CCCCNC(=O)[C@@H](N)CCCCNC(=O)[C@@H](N)CCCCNC(=O)CC[C@H](NC(=O)CCCCCCCCCCCCCCCCC(=O)O)C(=O)O)NC(=O)[C@H](CCCNC(=N)N)NC(=O)[C@H](C)NC(=O)[C@H](C)NC(=O)[C@H](CCC(N)=O)NC(=O)[C@H](CCC(=O)O)NC(=O)[C@H](CCC(=O)O)NC(=O)[C@H](CC(C)C)NC(=O)[C@H](CC(C)C)NC(=O)[C@@H](NC(=O)[C@H](CO)NC(=O)[C@H](Cc1ccc(O)cc1)NC(=O)[C@H](CC(=O)O)NC(=O)[C@H](CO)NC(=O)[C@@H](NC(=O)[C@H](Cc1ccccc1)NC(=O)[C@@H](NC(=O)CNC(=O)[C@H](CCC(=O)O)NC(=O)C(C)(C)NC(=O)[C@@H](N)Cc1ccc(O)cc1)[C@@H](C)O)[C@@H](C)O)[C@@H](C)CC)C(=O)N[C@@H](CC(N)=O)C(=O)N[C@@H](Cc1c[nH]c2ccccc12)C(=O)N[C@@H](CC(C)C)C(=O)N[C@@H](CC(C)C)C(=O)N[C@@H](C)C(=O)NCC(=O)NCC(=O)N1CCC[C@H]1C(=O)N[C@@H](CO)C(=O)N[C@@H](CO)C(=O)NCC(=O)N[C@@H](C)C(=O)N1CCC[C@H]1C(=O)N1CCC[C@H]1C(=O)N1CCC[C@H]1C(=O)N[C@@H](CO)C(=O)O [Compound 39] (H-Y[Aib]EGTFTSDYSILLEEQAARK([εLys-εLys-γGlu-C18 diacid])FINWLLAGGPSSGAPPPS-OH) | 10.55 | 9.44 | 11.09 | 9.87
CC[C@H](C)[C@H](NC(=O)[C@H](Cc1ccccc1)NC(=O)[C@H](CCC(=O)O)NC(=O)[C@H](CCCNC(=N)N)NC(=O)[C@H](C)NC(=O)[C@H](C)NC(=O)[C@H](CCC(N)=O)NC(=O)[C@H](CCC(=O)O)NC(=O)[C@H](CCC(=O)O)NC(=O)[C@H](CC(C)C)NC(=O)[C@H](Cc1ccc(O)cc1)NC(=O)[C@H](CCCCNC(=O)[C@@H](N)CCCCNC(=O)[C@@H](N)CCCCNC(=O)CC[C@H](NC(=O)CCCCCCCCCCCCCCCCC(=O)O)C(=O)O)NC(=O)[C@H](CO)NC(=O)[C@H](Cc1ccc(O)cc1)NC(=O)[C@H](CC(=O)O)NC(=O)[C@H](CO)NC(=O)[C@@H](NC(=O)[C@H](Cc1ccccc1)NC(=O)[C@@H](NC(=O)CNC(=O)[C@H](CCC(=O)O)NC(=O)C(C)(C)NC(=O)[C@@H](N)Cc1ccc(O)cc1)[C@@H](C)O)[C@@H](C)O)C(=O)N[C@@H](CC(N)=O)C(=O)N[C@@H](Cc1c[nH]c2ccccc12)C(=O)N[C@@H](CC(C)C)C(=O)N[C@@H](CC(C)C)C(=O)N[C@@H](C)C(=O)NCC(=O)NCC(=O)N1CCC[C@H]1C(=O)N[C@@H](CO)C(=O)N[C@@H](CO)C(=O)NCC(=O)N[C@@H](C)C(=O)N1CCC[C@H]1C(=O)N1CCC[C@H]1C(=O)N1CCC[C@H]1C(=O)N[C@@H](CO)C(=O)O [Compound 41] | 11.31 | 10.10 | 11.92 | 10.50
